Patent publication US20030027981A1, “Urokinase-type plasminogen activator receptor” (priority 1989, published 2003)

B1: PAI-2: human type-2 plasminogen activator inhibitor purified from U937 cells (protein, UniProt P05120 1-415, looked up)
Plasminogen activator …: MEDLCVANTLFALNLFKHLAKASPTQNLFLSPWSISSTMAMVYMGSRGSTEDQMAKVLQFNEVGANAVTPMTPENFTSCGFMQQIQKGSYPDAILQAQAADKIHSSFRSLSSAINASTGNYLLESVNKLFGEKSASFREEYIRLCQKYYSSEPQAVDFLECAEEARKKINSWVKTQTKGKIPNLLPEGSVDGDTRMVLVNAVYFKGKWKTPFEKKLNGLYPFRVNSAQRTPVQMMYLREKLNIGYIEDLKAQILELPYAGDVSMFLLLPDEIADVSTGLELLESEITYDKLNKWTSKDKMAEDEVEVYIPQFKLEEHYELRSILRSMGMEDAFNKGRANFSGMSERNDLFLSEVFHQAMVDVNEEGTEAAAGTGGVMTGRTGHGGPQFVADHPFLFLIMHKITNCILFFGRFSSP

System: HT-1080 cells
Assay: Formation of cell-bound plasmin on HT-1080 cells in serum culture (tranexamic acid eluate, thioesterase assay)
Format: cell-based, human
Settings: for Bound plasmin activity: 2 h, serum medium, all with Plg 40 μg/ml, aprotinin, anti-Plg-1, TA (100 μM) also with anti-PAI-1 10 μg/ml; for activity at 10 µM / activity at 100 µM: Homo sapiens, HT-1080; for activity at 10 µM: Plg 40 μg/ml + TA 10 μM; for activity at 100 µM: Plg 40 μg/ml + TA 100 μM
Description: Human fibrosarcoma cells (HT-1080, CCL 121) were obtained from the American Type Culture Collection, Rockville, Md. Confluent cell layers were grown in plastic Linbro wells (2 cm^2; Flow Laboratories) in Eagle's minimal essential medium (MEM) supplemented with 10% heat-inactivated (56° C. for 60 minutes) fetal calf serum (Gibco), 100 IU/ml penicillin and 50 μg/ml streptomycin. After reaching confluence, the cells were rinsed three times with MEM containing 0.2% bovine serum albumin (BSA), then changed to either serum-free medium (0.5 ml) or medium containing 10% heat-inactivated and plasminogen-depleted (i.e. absorbed with lysine-Sepharose; Pharmacia, Uppsala, Sweden) fetal calf serum as indicated in the Examples.
Human plasminogen (with glutamic acid N-terminal) was prepared by affinity chromatography on lysine-Sepharose (Deutsch, D. G., and E. T. Mertz, “Plasminogen: Purification from human plasma by affinity chromatography”, Science 170: 1095-1097, 1970) from freshly separated, unfrozen human plasma pretreated with 10 μM p-nitrophenyl guanidinobenzoate, 1 mM phenylmethylsulfonylfluoride and 0.1 μg/ml of an anti-catalytic murine monoclonal IgG antibody to human t-PA (ESP-2; see MacGregor, I. R. et al., “Characterization of epitopes on human tissue plasminogen activator recognised by a group of monoclonal antibodies”, Thromb. Haem. 53: 45-50, 1985); American Diagnostica, Greenwich, Conn.).
Res. 46: 755-766, 1987) titration equivalent of 3.6 IU u-PA/ml; an anti-catalytic murine monoclonal IgG antibody to human u-PA (clone 2 (10 μg/ml) in Nielsen, L. S. et al., “Enzyme-linked immunosorbent assay for human urokinase-type plasminogen activators and its proenzyme using a combination of monoclonal and polyclonal antibodies”, J. Immunoassay 7: 209-228, 1986); the anti-catalytic monoclonal antibody to human t-PA (10 μg/ml); a neutralising murine monoclonal IgG antibody to human PAI-1 (Nielsen, L. S. et al., “Monoclonal antibodies to human 54,000 molecular weight plasminogen activator inhibitor from fibrosarcoma cells—inhibitor neutralization and one-step affinity purification”, Thromb. Haem. 55: 206-212, 1986) (10 μg/ml) and diisopropyl fluorophosphate (DFP)-inactivated u-PA (0-10 μg/ml).
The plasmin activity of culture supernatant samples (50 μl) was assayed directly by incubation with the thioester substrate solution above (200 μl) for 30 minutes (serum-free supernatants) or 3 hours (serum-containing supernatants) at 37° C. An estimate of the amount of active plasmin present was made from calibration curves using human plasmin dilutions in serum-free medium covering the appropriate ranges of activity.
Plasmin bound to the cell layer was recovered and assayed as follows. After harvest of culture medium, the cells were rinsed three times with PBS (plasmin assays of further rinses were negative); then the bound plasmin was specifically eluted (Miles, L. A., and E. F. Plow, “Binding and activation of plasminogen on the platelet surface”, J. Biol. Chem. 260: 4303-4311, 1985) with a solution of 1 mM tranexamic acid in the same rinsing solution (150 μl/well). Plasmin activity was assayed in eluate samples (50 μl) as above with an incubation time of 3 hours at 37° C. Tranexamic acid at 1 mM had no effect on the thioesterase activity of plasmin in these assays.
The following additions were made to cell layers growing in MEM medium (0.5 ml) containing 10% heat-inactivated and plasminogen-depleted fetal calf serum: native human plasminogen (Plg, 40 μg/ml); anti-catalytic monoclonal antibody to human u-PA (10 μg/ml); anti-catalytic monoclonal antibody to human t-PA (10 μg/ml); PAI-2 (titration equivalent of 3.6 UI u-PA/ml); anti-catalytic monoclonal antibody to human plasmin (20 μg/ml); aprotinin (200 KIU/ml); tranexamic acid (TA, as shown). The cultures were incubated for the times shown before assay of cell-bound plasmin. The incubation with plasminogen was used as the 100% control for bound plasmin. […]

[1] = 3 h, serum medium with Plg 40 μg/ml (=100%), anti-u-PA 10 μg/ml, anti-t-PA 10 μg/ml, PAI-2 equiv. 3.6 IU u-PA/ml, aprotinin 200 KIU/ml, anti-Plg-1 20 μg/ml
[2] = 17 h, serum medium with Plg 40 μg/ml (=100%), additions as b555

Row | Molecule | Bound plasmin activity [ng] | activity at 10 µM (3 h) [%] | activity at 100 µM (3 h) [%] | activity at 10 µM (17 h) [%] | activity at 100 µM (17 h) [%] | Plasmin recovered from the cell layer (40 μg/ml human plasminogen in 0.5 ml serum medium, 2 cm^2 cell layer, 3 hours 37° C.) [ng] | Plasmin measurable in the medium (40 μg/ml human plasminogen in 0.5 ml serum medium, 3 hours 37° C.) [ng] | Bound plasmin activity (%) [1] [%] | Bound plasmin activity (%) [2] [%] | Bound plasmin activity (%) (cells preincubated 1 h with inhibitor (anti-u-PA 10 μg/ml, PAI-2 equiv. 3.6 IU u-PA/ml), rinsed, then 3 h with Plg 40 μg/ml in serum medium)
1 | NC[C@H]1CC[C@H](C(=O)O)CC1 [TA, tranexamic acid] | 0 | 9.7 | 2.2 | 34 | 13 | – | – | – | – | –
2 | Plg: native human plasminogen (glutamic acid N-terminal) purified from human plasma on lysine-Sepharose | 12 | – | – | – | – | 28 | 10 | 100 | 100 | –
3 | aprotinin | 3.3 | – | – | – | – | – | – | 13.2 | 7.8 | –
4 | B1 | – | – | – | – | – | – | – | 48 | 19 | 54
